Assay results: article PMC6131557, “Selective Cytotoxicity of Dihydroorotate Dehydrogenase Inhibitors to Human Cancer Cells Under Hypoxia and Nutrient-Deprived Conditions” (Frontiers in Pharmacology, 2018)
Where two headings read alike, the source gives them in different places. Blank lines part the entries; values can stand above or below the molecule they belong to.

Columns and labels:
[1] = molecular target: T1, human dihydroorotate dehydrogenase (HsDHODH) (Homo sapiens, UniProt Q02127); assay: Inhibition of recombinant human DHODH enzyme activity; format: biochemical; conditions: for IC50: recombinant human DHODH; for inhibition at 1 µM: at 1,000 nM, read-out: Inhibition of HsDHODH activity (value in parentheses)
T1 construct: made in house
T1 sequence (Q02127 whole entry): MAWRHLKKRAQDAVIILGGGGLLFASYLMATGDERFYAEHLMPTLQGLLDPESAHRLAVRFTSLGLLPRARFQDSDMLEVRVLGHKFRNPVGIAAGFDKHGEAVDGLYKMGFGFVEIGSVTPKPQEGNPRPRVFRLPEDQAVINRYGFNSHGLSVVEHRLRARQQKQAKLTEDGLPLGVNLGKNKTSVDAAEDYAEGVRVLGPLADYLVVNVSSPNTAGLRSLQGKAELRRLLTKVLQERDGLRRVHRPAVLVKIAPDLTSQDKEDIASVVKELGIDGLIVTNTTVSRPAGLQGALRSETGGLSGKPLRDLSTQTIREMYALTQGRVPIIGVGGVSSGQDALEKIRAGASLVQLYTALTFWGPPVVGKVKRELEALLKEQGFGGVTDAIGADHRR

Complex II = molecular target: T2, Complex II (Bos taurus, UniProt P35720+Q3T189+Q95123); assay: Succinate:quinone reductase (complex II) activity, bovine mitochondria; format: biochemical
T2 construct: from tissue; host or cells: bovine mitochondrial fraction / sub-mitochondrial particles
T2 sequence (P31039 45-665 partner limits assumed): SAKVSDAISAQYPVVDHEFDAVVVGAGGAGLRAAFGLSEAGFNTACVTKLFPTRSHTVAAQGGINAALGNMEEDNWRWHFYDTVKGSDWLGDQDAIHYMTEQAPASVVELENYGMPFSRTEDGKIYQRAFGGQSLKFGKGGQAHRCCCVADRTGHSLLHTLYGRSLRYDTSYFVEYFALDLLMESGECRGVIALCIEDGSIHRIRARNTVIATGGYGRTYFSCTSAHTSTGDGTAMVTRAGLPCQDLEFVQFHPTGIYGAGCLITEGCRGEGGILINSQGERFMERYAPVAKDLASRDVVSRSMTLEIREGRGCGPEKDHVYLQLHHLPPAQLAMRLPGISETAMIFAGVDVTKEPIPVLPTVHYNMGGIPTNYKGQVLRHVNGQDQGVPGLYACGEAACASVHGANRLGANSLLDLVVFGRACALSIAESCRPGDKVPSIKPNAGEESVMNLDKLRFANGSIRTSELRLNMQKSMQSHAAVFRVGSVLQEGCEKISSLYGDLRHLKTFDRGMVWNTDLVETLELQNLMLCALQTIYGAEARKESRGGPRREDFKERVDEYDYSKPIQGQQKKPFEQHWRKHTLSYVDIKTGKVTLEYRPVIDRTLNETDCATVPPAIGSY
T2 sequence (Q3T189 29-280): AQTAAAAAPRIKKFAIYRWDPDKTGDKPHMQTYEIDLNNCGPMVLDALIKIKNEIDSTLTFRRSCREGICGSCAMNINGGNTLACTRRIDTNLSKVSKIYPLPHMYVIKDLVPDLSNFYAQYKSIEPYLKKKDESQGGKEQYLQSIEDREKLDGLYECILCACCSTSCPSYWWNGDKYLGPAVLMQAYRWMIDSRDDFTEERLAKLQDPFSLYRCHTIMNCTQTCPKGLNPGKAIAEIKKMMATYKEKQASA
T2 sequence (P35720 30-169): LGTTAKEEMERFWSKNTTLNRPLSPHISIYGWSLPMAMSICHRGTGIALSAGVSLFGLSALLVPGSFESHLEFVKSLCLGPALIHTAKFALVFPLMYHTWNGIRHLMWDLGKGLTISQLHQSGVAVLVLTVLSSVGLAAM
T2 sequence (Q95123 56-158): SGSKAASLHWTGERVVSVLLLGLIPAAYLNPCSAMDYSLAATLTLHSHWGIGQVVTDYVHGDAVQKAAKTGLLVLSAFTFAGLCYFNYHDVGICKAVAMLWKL

Complexes I–III = assay: NADH-cytochrome c reductase (complexes I–III) activity, bovine mitochondria; format: biochemical
Description: (§1) Recombinant human DHODH was purified, crystallized, and assayed as previously described ([Inaoka et al., 2016]) without modification. Bovine mitochondrial fractions were prepared as previously described ([Kita et al., 1988]) and NADH dehydrogenase (complex I), succinate:quinone reductase (complex II), quinol oxidase (complexes III–IV), NADH-cytochrome c reductase (complexes I–III), and succinate-cytochrome c (complexes II–III) activities were assayed following an established method ([Takamiya et al., 1986]; [Miyadera et al., 2001]; [Matsumoto et al., 2008]; [Kido et al., 2010]; [Nihashi et al., 2017]).

Complex II–III = assay: Succinate-cytochrome c reductase (complexes II–III) activity, bovine mitochondria; format: biochemical
Description: as §1

Complex III = molecular target: T3, Complex III (Bos taurus, UniProt P00157); assay: Quinol oxidase (complex III) activity, bovine mitochondria; format: biochemical; conditions: ubiquinol oxidase activity
T3 construct: from tissue; host or cells: bovine mitochondrial fraction / sub-mitochondrial particles

Complex I = assay: NADH dehydrogenase (complex I) activity, bovine mitochondria; format: biochemical; conditions: at 5 μM
Description: as §1

MKN1 = assay: 39-cancer cell panel assay: MKN1; format: cell-based; conditions: Homo sapiens, MKN-1, St
HBC-5 = assay: 39-cancer cell panel assay: HBC-5; format: cell-based; conditions: Homo sapiens, HBC5, Br
RXF-631L = assay: 39-cancer cell panel assay: RXF-631L; format: cell-based; conditions: Homo sapiens, Re
MKN7 = assay: 39-cancer cell panel assay: MKN7; format: cell-based; conditions: Homo sapiens, MKN-7, St
DU-145 = assay: 39-cancer cell panel assay: DU-145; format: cell-based; conditions: Homo sapiens, Pro
NCI-H23 = assay: 39-cancer cell panel assay: NCI-H23; format: cell-based; conditions: Homo sapiens, Lu
LOX-IMVI = assay: 39-cancer cell panel assay: LOX-IMVI; format: cell-based; conditions: Homo sapiens, Me
OVCAR-3 = assay: 39-cancer cell panel assay: OVCAR-3; format: cell-based; conditions: Homo sapiens, Ov
MKN74 = assay: 39-cancer cell panel assay: MKN74; format: cell-based; conditions: Homo sapiens, MKN-74, St
OVCAR-8 = assay: 39-cancer cell panel assay: OVCAR-8; format: cell-based; conditions: Homo sapiens, Ov
DMS273 = assay: 39-cancer cell panel assay: DMS273; format: cell-based; conditions: Homo sapiens, DMS-273, Lu
MKN28 = assay: 39-cancer cell panel assay: MKN28; format: cell-based; conditions: Homo sapiens, MKN-28, St
BSY-1 = assay: 39-cancer cell panel assay: BSY-1; format: cell-based; conditions: Homo sapiens, Br
HBC-4 = assay: 39-cancer cell panel assay: HBC-4; format: cell-based; conditions: Homo sapiens, HBC4, Br
MKN45 = assay: 39-cancer cell panel assay: MKN45; format: cell-based; conditions: Homo sapiens, MKN-45, St
HCC2998 = assay: 39-cancer cell panel assay: HCC2998; format: cell-based; conditions: Homo sapiens, HCC 2998, Co
SNB-75 = assay: 39-cancer cell panel assay: SNB-75; format: cell-based; conditions: Homo sapiens, CNS
HCT-116 = assay: 39-cancer cell panel assay: HCT-116; format: cell-based; conditions: Homo sapiens, Co
SNB-78 = assay: 39-cancer cell panel assay: SNB-78; format: cell-based; conditions: Homo sapiens, CNS
PC-3 = assay: 39-cancer cell panel assay: PC-3; format: cell-based; conditions: Homo sapiens, Pro
MDA-MB-231 = assay: 39-cancer cell panel assay: MDA-MB-231; format: cell-based; conditions: Homo sapiens, Br
KM-12 = assay: 39-cancer cell panel assay: KM-12; format: cell-based, human; conditions: Co
HCT-15 = assay: 39-cancer cell panel assay: HCT-15; format: cell-based; conditions: Homo sapiens, Co
DMS114 = assay: 39-cancer cell panel assay: DMS114; format: cell-based; conditions: Homo sapiens, DMS-114, Lu
SF-268 = assay: 39-cancer cell panel assay: SF-268; format: cell-based; conditions: Homo sapiens, CNS
St-4 = assay: 39-cancer cell panel assay: St-4; format: cell-based; conditions: Homo sapiens
SF-295 = assay: 39-cancer cell panel assay: SF-295; format: cell-based; conditions: Homo sapiens, CNS
NCI-H226 = assay: 39-cancer cell panel assay: NCI-H226; format: cell-based; conditions: Homo sapiens, Lu
NCI-H460 = assay: 39-cancer cell panel assay: NCI-H460; format: cell-based; conditions: Homo sapiens, Lu
OVCAR-5 = assay: 39-cancer cell panel assay: OVCAR-5; format: cell-based; conditions: Homo sapiens, Ov
U251 = assay: 39-cancer cell panel assay: U251; format: cell-based; conditions: Homo sapiens, U-251, CNS
HT-29 = assay: 39-cancer cell panel assay: HT-29; format: cell-based; conditions: Homo sapiens, Co
NCI-H522 = assay: 39-cancer cell panel assay: NCI-H522; format: cell-based; conditions: Homo sapiens, Lu
SK-OV-3 = assay: 39-cancer cell panel assay: SK-OV-3; format: cell-based; conditions: Homo sapiens
ACHN = assay: 39-cancer cell panel assay: ACHN; format: cell-based; conditions: Homo sapiens, Re
OVCAR-4 = assay: 39-cancer cell panel assay: OVCAR-4; format: cell-based; conditions: Homo sapiens, Ov
A549 = assay: 39-cancer cell panel assay: A549; format: cell-based; conditions: Homo sapiens, Lu
MCF-7 = assay: 39-cancer cell panel assay: MCF-7; format: cell-based; conditions: Homo sapiens, MCF7, Br
SF-539 = assay: 39-cancer cell panel assay: SF-539; format: cell-based; conditions: Homo sapiens, CNS
[2] = purified enzyme fixed at 10 nM, read-out: IC50 (nM), inhibition of human DHODH

Structure (SMILES): C/C(=C\Cc1c(O)c(Cl)c(C)c(C=O)c1O)CC/C=C(\C)C1CC(=O)C(C)(C)O1 (racemic) [Compound 2, racemic-AF]
IC50 [1, 2]: 97.4 ± 7.3 nM

Structure (SMILES): COc1[nH]c(=O)c(C(=O)[C@@H](C)C[C@H](C)[C@@H](Cl)CCl)c(O)c1OC [Atpenin A5, reference compound]
inhibition at 5 µM (Complex II): 97 ± 1% | IC50 ([1]; IC50 (μM) HsDHODH, Table 6): > 10000 nM | IC50 (Complexes I–III): 2.8 ± 0.44 µM | IC50 (Complex II–III): 0.0063 ± 0.0002 µM | inhibition at 5 µM (Complex III): 0% | Inhibition (%) Complex I (Complex I): 10 ± 2.7%

Structure (SMILES): CC(C)=CCC/C(C)=C/Cc1c(O)c(Cl)c(C)c(C=O)c1O [Compound 3, colletochlorin B]
IC50 [1, 2]: 74.1 ± 22 nM

Structure (SMILES): C/C(=C\Cc1c(O)c(Cl)c(C)c(C=O)c1O)CC/C=C(\C)C(C)O (centres unmarked) [Compound 6]
GI50 (MKN1): 44 µM | GI50 (HBC-5): 61 µM | GI50 (RXF-631L): 45 µM | GI50 (MKN7): 36 µM | GI50 (DU-145): 25 µM | GI50 (NCI-H23): 39 µM | GI50 (LOX-IMVI): 13 µM | GI50 (OVCAR-3): 27 µM | GI50 (MKN74): 26 µM | GI50 (OVCAR-8): 25 µM | GI50 (DMS273): 18 µM | IC50 [1, 2]: 63.9 ± 11 nM | GI50 (MKN28): 36 µM | GI50 (BSY-1): 59 µM | GI50 (HBC-4): 37 µM | GI50 (MKN45): 65 µM | GI50 (HCC2998): 43 µM | GI50 (SNB-75): 59 µM | GI50 (HCT-116): 14 µM | GI50 (SNB-78): 43 µM | GI50 (PC-3): 22 µM | GI50 (MDA-MB-231): 36 µM | GI50 (μM) KM-12 (KM-12): 32.0 µM | GI50 (HCT-15): 6.2 µM | GI50 (DMS114): 35 µM | GI50 (SF-268): 12 µM | GI50 (St-4): 44 µM | GI50 (SF-295): 16 µM | GI50 (NCI-H226): 24 µM | GI50 (NCI-H460): 12 µM | GI50 (OVCAR-5): 58 µM | GI50 (U251): 5.1 µM | GI50 (HT-29): 39 µM | GI50 (NCI-H522): 22 µM | GI50 (SK-OV-3): 27 µM | GI50 (ACHN): 22 µM | GI50 (OVCAR-4): 39 µM | GI50 (A549): 37 µM | GI50 (MCF-7): 36 µM | GI50 (SF-539): 5.3 µM

More lines, now with the values ahead:

IC50 [1, 2]: 67.2 ± 2.8 nM
Structure (SMILES): C/C(=C\COC(=O)C(C)(C)C)CC/C(C)=C/Cc1c(O)c(Cl)c(C)c(C=O)c1O [Compound 11]

GI50 (MKN1): 12 µM | GI50 (HBC-5): 18 µM | GI50 (RXF-631L): 16 µM | GI50 (MKN7): 16 µM | GI50 (DU-145): 23 µM | GI50 (NCI-H23): 13 µM | GI50 (LOX-IMVI): 3.4 µM | GI50 (OVCAR-3): 7.1 µM | GI50 (MKN74): 11 µM | GI50 (OVCAR-8): 9.4 µM | GI50 (DMS273): 3.6 µM | GI50 (MKN28): 13 µM | GI50 (BSY-1): 16 µM | GI50 (HBC-4): 9.4 µM | GI50 (MKN45): 24 µM | GI50 (HCC2998): 16 µM | GI50 (SNB-75): 28 µM | GI50 (HCT-116): 4.6 µM | GI50 (SNB-78): 28 µM | GI50 (PC-3): 13 µM | GI50 (MDA-MB-231): 10 µM | GI50 (μM) KM-12 (KM-12): 10.0 µM | GI50 (HCT-15): 1.9 µM | GI50 (DMS114): 12 µM | GI50 (SF-268): 9.5 µM | GI50 (St-4): 17 µM | GI50 (SF-295): 16 µM | GI50 (NCI-H226): 8 µM | GI50 (NCI-H460): 4.5 µM | GI50 (OVCAR-5): 22 µM | GI50 (U251): 4.9 µM | GI50 (HT-29): 5.8 µM | GI50 (NCI-H522): 4.2 µM | GI50 (SK-OV-3): 49 µM | GI50 (ACHN): 16 µM | GI50 (OVCAR-4): 19 µM | GI50 (A549): 7.1 µM | GI50 (MCF-7): 6.7 µM | GI50 (SF-539): 2.2 µM
Structure (SMILES): C/C(=C\COC(=O)C(C)C)CC/C(C)=C/Cc1c(O)c(Cl)c(C)c(C=O)c1O [Compound 12]

fold decrease (IC50 compared to 4) ([1]; HsDHODH IC50 versus compound 4): about 3.5 fold | IC50 [1, 2]: 349 ± 96 nM
Structure (SMILES): C/C(=C\CC/C=C/Cc1c(O)c(Cl)c(C)c(C=O)c1O)COC(=O)C(C)(C)C [Compound 13]

HsDHODH inhibition activity (in words) [1]: abolished | inhibition at 1 µM [1]: 35% | IC50 [1, 2]: > 1000 nM
Structure (SMILES): Cc1c(Cl)c(O)c(CCC(C)CCCC(C)COC(=O)C(C)(C)C)c(O)c1C=O (centres unmarked) [Compound 14]

inhibition at 1 µM [1]: 21% | IC50 [1, 2]: > 1000 nM
Structure (SMILES): Cc1c(Cl)c(O)c(CCC(C)CCCCOC(=O)C(C)(C)C)c(O)c1C=O (centres unmarked) [Compound 16]
